Converted amounts (≈) assume the structure as drawn.
These compounds were tested on Jurkat (assay: Cytotoxicity against human Jurkat cells after 72 hrs by MTT assay).
Assay type: functional, cell-based

Compared with `C=C[C@@](C)(CC/C=C(\CO)C(=O)O[C@H]1C[C@]2(C(=O)O[C@@H]3O[C@H](CO)[C@@H](O)[C@H](O)[C@H]3O[C@@H]3O[C@@H](C)[C@H](O[C@@H]4O[C@@H](CO)[C@H](O)[C@H]4O)[C@@H](O[C@@H]4O[C@H](CO)[C@@H](O)[C@H](O)[C@H]4O)[C@H]3O)[C@H](O)C[C@]3(C)C(=CC[C@@H]4[C@@]5(C)CC[C@H](O[C@@H]6O[C@H](CO[C@@H]7O[C@H](C)[C@H](O)[C@H](O)[C@H]7O[C@@H]7OC[C@@H](O)[C@H](O)[C@H]7O)[C@@H](O)[C@H](O)[C@H]6NC(C)=O)C(C)(C)[C@@H]5CC[C@]43C)[C@@H]2CC1(C)C)O[C@@H]1O[C@H](C)[C@@H](O)[C@H](O)[C@H]1O` [JULIBROSIDE J29], `C=C[C@](C)(O)CC/C=C(\C)C(=O)O[C@H]1[C@H](O)[C@@H](O)[C@H](O[C@@](C)(C=C)CC/C=C(\CO)C(=O)O[C@H]2C[C@]3(C(=O)O[C@@H]4O[C@H](CO)[C@@H](O)[C@H](O)[C@H]4O[C@@H]4O[C@@H](C)[C@H](O[C@@H]5O[C@@H](CO)[C@H](O)[C@H]5O)[C@@H](O[C@@H]5O[C@H](CO)[C@@H](O)[C@H](O)[C@H]5O)[C@H]4O)[C@H](O)C[C@]4(C)C(=CC[C@@H]5[C@@]6(C)CC[C@H](O[C@@H]7O[C@H](CO[C@@H]8O[C@H](C)[C@H](O)[C@H](O)[C@H]8O[C@@H]8OC[C@@H](O)[C@H](O)[C@H]8O)[C@@H](O)[C@H](O)[C@H]7NC(C)=O)C(C)(C)[C@@H]6CC[C@]54C)[C@@H]3CC2(C)C)O[C@@H]1C` [AVICIN G] is 26-fold lower in IC50: 5.8 µg/mL (≈ 3.05 µM) for the first, 0.22 µg/mL (≈ 0.106 µM) for the second.

Compared with `C=C[C@](C)(O)CC/C=C(\CO)C(=O)O[C@H]1[C@H](O)[C@@H](O)[C@H](O[C@@](C)(C=C)CC/C=C(\CO)C(=O)O[C@H]2C[C@]3(C(=O)O[C@@H]4O[C@H](CO)[C@@H](O)[C@H](O)[C@H]4O[C@@H]4O[C@@H](C)[C@H](O[C@@H]5O[C@@H](CO)[C@H](O)[C@H]5O)[C@@H](O[C@@H]5O[C@H](CO)[C@@H](O)[C@H](O)[C@H]5O)[C@H]4O)[C@H](O)C[C@]4(C)C(=CC[C@@H]5[C@@]6(C)CC[C@H](O[C@@H]7O[C@H](CO[C@@H]8O[C@H](C)[C@H](O)[C@H](O)[C@H]8O[C@@H]8OC[C@@H](O)[C@H](O)[C@H]8O)[C@@H](O)[C@H](O)[C@H]7NC(C)=O)C(C)(C)[C@@H]6CC[C@]54C)[C@@H]3CC2(C)C)O[C@@H]1C` [AVICIN D], `CC(=O)N[C@H]1[C@H](O[C@H]2CC[C@]3(C)[C@H]4CC=C5[C@@H]6CC(C)(C)[C@@H](O)C[C@]6(C(=O)O)[C@H](O)C[C@@]5(C)[C@]4(C)CC[C@H]3C2(C)C)O[C@H](CO[C@@H]2O[C@H](C)[C@H](O)[C@H](O)[C@H]2O[C@@H]2OC[C@@H](O)[C@H](O)[C@H]2O)[C@@H](O)[C@@H]1O` is higher in IC50: 0.58 µg/mL (≈ 0.278 µM) for the first, > 100 µg/mL for the second.

In the case of `CC1(C)C[C@H]2C3=CC[C@@H]4[C@@]5(C)CC[C@H](O)C(C)(C)[C@@H]5CC[C@@]4(C)[C@]3(C)C[C@@H](O)[C@@]23C[C@@H]1OC3=O`, the IC50 is reported as > 100 µg/mL.
